Measured values from ChEMBL document CHEMBL1201862, “PubChem BioAssay data set” (2004).
“And” between values parts separate entries of the source, which are not always exact repeats. Identical values can stand only once. The source made the active and inactive calls.

Assays:
[1] = target: Voltage-gated inwardly rectifying potassium channel KCNH2 (Homo sapiens, UniProt Q12809); settings: Potency;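 note: confirmatory quantitative high-throughput screen measuring inhibition of hERG channel activity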
Chain of Voltage-gated inwardly rectifying potassium channel KCNH2 (Q12809 whole entry): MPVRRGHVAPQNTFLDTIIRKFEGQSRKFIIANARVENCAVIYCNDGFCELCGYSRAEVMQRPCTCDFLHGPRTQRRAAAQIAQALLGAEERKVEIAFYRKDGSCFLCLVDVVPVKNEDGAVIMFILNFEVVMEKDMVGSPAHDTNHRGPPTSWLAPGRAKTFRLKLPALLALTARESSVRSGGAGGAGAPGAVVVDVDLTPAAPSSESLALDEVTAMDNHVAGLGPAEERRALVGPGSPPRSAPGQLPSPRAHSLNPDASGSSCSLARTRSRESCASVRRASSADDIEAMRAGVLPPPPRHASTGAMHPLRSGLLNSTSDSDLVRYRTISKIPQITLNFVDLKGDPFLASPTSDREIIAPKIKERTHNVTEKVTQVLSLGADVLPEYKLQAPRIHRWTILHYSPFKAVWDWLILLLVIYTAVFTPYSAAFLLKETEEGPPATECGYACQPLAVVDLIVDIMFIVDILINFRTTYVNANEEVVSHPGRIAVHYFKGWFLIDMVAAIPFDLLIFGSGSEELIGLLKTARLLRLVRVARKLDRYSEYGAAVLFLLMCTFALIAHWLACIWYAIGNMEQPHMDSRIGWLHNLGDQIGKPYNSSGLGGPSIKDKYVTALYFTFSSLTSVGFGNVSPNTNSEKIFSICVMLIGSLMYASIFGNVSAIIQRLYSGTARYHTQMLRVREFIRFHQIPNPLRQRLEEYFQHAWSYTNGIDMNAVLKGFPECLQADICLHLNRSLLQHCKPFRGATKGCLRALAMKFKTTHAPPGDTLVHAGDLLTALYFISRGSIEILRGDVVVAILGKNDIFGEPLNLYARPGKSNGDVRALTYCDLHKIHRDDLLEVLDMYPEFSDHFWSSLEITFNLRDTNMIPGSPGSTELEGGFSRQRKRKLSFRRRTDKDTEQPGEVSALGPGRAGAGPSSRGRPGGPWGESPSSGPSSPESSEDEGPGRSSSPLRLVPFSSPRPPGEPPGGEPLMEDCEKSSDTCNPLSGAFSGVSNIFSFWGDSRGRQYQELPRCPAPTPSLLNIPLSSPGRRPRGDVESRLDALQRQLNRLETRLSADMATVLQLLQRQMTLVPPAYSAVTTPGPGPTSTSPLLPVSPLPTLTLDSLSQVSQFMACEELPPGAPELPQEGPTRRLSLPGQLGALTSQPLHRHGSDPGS

Aminopeptidase N = target: T1, Aminopeptidase N (Plasmodium falciparum FcB1/Columbia, UniProt O96935); assay: malaria alanyl aminopeptidase activity blockers – biochemical, fluorogenic H-Leu-NHMec substrate, 1536-well (AID 1445); set-up: species or system Plasmodium falciparum 3D7, 3D7
T1 sequence (O96935 whole entry): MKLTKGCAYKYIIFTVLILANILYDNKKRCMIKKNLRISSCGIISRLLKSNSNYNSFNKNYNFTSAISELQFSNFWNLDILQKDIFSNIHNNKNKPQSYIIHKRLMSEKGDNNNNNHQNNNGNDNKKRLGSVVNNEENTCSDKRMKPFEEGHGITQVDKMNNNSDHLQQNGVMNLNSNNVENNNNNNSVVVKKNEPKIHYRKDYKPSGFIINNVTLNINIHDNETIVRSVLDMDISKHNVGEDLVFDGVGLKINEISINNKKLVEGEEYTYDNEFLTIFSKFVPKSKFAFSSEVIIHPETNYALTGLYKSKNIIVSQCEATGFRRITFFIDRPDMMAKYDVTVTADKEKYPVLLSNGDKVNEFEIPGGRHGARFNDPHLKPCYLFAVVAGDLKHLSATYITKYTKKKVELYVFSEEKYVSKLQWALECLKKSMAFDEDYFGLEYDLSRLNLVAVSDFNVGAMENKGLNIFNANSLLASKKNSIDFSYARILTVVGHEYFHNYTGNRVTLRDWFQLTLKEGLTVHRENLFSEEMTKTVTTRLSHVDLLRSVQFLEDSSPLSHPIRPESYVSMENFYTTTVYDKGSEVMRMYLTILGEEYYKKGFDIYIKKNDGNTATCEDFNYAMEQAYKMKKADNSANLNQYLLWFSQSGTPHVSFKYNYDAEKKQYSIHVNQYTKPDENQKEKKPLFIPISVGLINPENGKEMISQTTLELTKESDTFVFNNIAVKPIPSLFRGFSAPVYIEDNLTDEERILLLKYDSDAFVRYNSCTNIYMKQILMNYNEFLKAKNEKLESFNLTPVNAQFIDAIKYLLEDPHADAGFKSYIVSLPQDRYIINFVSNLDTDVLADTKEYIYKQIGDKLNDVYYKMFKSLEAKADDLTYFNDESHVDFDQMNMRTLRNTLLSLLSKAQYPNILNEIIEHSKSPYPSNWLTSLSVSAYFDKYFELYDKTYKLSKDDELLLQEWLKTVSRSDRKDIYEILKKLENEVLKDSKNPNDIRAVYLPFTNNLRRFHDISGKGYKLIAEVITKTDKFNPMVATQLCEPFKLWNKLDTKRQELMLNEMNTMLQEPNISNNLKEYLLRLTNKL

Cytochrome P450 2C9 = Cytochrome P450 2C9 (Homo sapiens, UniProt P11712)
Chain of Cytochrome P450 2C9 (P11712 whole entry): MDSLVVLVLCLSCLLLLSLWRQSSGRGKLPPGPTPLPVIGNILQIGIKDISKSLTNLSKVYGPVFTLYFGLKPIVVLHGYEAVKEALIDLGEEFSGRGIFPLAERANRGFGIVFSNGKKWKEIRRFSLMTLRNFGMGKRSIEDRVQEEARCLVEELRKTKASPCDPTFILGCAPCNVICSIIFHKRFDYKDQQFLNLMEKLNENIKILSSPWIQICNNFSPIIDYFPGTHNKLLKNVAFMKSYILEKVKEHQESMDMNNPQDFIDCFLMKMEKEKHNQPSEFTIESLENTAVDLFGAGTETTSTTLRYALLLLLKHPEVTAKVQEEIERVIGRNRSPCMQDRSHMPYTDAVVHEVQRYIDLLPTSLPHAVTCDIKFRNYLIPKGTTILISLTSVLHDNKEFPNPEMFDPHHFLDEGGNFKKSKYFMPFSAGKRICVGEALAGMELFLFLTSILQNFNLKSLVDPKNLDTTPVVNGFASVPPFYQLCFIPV

Cytochrome P450 3A4 [2] = target: T2, Cytochrome P450 3A4 (Homo sapiens, UniProt P08684)
T2 sequence (P08684 whole entry): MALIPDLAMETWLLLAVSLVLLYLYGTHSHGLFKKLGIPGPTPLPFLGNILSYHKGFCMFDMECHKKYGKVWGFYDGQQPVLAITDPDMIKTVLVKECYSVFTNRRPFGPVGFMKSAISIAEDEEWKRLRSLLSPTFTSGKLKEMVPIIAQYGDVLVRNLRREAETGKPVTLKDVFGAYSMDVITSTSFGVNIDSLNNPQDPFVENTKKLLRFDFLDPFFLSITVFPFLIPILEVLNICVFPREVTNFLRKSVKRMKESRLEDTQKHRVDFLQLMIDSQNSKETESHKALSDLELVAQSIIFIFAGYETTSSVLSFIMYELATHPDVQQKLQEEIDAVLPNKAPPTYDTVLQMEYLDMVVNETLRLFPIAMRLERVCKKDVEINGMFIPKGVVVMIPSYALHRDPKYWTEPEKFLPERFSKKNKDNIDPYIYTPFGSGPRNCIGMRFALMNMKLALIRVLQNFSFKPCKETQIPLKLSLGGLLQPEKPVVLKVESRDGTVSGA

Cytochrome P450 2C19 = Cytochrome P450 2C19 (Homo sapiens, UniProt P33261); assay: Cytochrome panel assay with activity outcomes. Panel member name: p450-cyp2c19 Compounds with AC50 equal or less than 10 uM are considered active; type: functional; settings: read-out: AC50
Chain of Cytochrome P450 2C19 (P33261 whole entry): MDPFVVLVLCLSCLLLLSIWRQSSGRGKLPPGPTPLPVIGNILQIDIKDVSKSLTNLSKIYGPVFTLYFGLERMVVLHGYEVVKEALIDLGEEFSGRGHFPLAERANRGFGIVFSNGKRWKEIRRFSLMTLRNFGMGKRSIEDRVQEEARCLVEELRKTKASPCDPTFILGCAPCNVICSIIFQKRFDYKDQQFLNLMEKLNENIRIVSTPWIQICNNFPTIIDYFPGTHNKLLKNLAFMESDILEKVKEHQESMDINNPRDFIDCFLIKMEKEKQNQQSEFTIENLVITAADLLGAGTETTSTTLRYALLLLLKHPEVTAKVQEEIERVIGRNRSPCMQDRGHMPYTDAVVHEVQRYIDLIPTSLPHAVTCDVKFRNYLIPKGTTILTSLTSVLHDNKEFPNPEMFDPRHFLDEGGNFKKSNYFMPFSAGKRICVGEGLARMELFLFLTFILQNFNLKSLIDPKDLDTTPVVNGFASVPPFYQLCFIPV

Leucine aminopeptidase = target: T3, Leucine aminopeptidase (Plasmodium falciparum 3D7, UniProt Q8IL11); assay: P. falciparum M17LAP inhibitors, primary screen, biochemical, fluorogenic H-Leu-NHMec substrate, 1536-well (AID 1619); type: functional
T3 sequence (Q8IL11 whole entry): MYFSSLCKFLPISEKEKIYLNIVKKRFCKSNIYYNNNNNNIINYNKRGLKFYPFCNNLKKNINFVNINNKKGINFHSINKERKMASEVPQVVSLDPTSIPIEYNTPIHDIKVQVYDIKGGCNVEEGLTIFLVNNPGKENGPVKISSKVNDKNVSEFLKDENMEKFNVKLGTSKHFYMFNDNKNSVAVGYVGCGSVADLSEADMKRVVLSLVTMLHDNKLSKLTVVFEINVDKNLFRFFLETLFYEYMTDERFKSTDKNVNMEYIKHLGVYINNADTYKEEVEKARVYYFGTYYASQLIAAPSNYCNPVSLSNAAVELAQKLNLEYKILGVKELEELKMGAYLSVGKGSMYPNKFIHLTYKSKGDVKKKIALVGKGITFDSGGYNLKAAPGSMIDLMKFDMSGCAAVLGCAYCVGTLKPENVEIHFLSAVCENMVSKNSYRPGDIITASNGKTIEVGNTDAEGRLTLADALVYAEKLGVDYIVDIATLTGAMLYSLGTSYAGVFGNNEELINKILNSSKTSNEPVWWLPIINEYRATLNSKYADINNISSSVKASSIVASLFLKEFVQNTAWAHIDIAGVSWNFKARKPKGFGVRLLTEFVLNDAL

Genome polyprotein = Genome polyprotein (dengue virus type 2, UniProt P29990); assay: flavivirus cap methylation enzyme inhibition – biochemical, confirmation dose response, primary screen (AID 588689); type: functional
Chain of Genome polyprotein (P29990 2492-3391 limits assumed): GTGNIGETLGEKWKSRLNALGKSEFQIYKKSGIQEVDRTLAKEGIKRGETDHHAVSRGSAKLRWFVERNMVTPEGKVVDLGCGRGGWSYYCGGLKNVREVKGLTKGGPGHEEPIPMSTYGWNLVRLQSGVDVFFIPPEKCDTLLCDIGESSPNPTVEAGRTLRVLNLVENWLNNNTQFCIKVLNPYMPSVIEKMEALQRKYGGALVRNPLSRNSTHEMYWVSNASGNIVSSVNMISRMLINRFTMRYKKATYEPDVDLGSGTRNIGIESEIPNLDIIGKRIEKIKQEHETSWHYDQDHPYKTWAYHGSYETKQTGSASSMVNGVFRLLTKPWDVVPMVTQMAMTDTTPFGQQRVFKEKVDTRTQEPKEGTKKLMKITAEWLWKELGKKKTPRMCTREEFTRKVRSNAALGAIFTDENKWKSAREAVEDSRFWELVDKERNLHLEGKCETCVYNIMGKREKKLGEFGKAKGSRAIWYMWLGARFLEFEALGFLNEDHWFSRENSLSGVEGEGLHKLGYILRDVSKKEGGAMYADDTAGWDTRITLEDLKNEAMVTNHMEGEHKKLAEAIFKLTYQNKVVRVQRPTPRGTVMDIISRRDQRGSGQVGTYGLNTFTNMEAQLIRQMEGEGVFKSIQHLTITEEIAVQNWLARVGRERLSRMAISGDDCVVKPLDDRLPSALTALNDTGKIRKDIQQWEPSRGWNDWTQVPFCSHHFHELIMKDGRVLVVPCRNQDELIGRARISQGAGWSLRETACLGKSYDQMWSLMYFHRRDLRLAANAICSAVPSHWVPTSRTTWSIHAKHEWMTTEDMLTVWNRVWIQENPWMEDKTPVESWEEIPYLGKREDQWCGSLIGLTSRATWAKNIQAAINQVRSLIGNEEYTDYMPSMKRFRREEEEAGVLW

[3] = fluconazole-exposed Candida albicans growth modulators – fluorescence, retest, confirmation (AID 2467); type: functional, cell-based
[4] = NIH-3T3 fibroblast cytotoxicity, dose response, cytotoxicity control, cell-based, fluorescence, Alamar Blue, secondary assay (AID 2327); type: functional;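 note: NIH-3T3 mouse fibroblasts cultured with fluconazole at 8 µg/mL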
Cytochrome P450 1A2 = target: T4, Cytochrome P450 1A2 (Homo sapiens, UniProt P05177);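 note: PubChem cytochrome P450 panel assay, CYP1A2 panel member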
T4 sequence (P05177 whole entry): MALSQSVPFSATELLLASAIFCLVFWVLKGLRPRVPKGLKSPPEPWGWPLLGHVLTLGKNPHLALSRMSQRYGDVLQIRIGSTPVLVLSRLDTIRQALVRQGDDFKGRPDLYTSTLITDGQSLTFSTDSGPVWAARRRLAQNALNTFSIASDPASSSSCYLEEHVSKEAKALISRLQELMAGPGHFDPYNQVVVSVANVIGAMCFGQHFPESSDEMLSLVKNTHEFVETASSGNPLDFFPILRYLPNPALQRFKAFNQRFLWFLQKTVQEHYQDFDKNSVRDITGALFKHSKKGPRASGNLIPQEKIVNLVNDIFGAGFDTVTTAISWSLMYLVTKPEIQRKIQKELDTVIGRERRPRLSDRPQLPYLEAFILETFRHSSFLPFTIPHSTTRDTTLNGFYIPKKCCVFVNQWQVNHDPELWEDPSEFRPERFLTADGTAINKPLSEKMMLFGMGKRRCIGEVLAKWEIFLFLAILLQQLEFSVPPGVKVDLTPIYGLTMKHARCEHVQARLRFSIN

cells = type: functional
[5] = THP-1 cell cytotoxicity, dose response, cytotoxicity control for non-replicating M. tuberculosis project (AID 489025); type: functional
INS1 = assay: INS-1E survival protection against cytokine death – cell-based, luminescence, retest, dose response (AID 449756); type: functional; settings: Rattus norvegicus;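 note: cell death triggered by IL-1 beta plus TNF-alpha plus IFN-gamma mixture; protective hits raise ATP signal compared with cytokine alone wells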
[6] = NIH3T3 cell viability loss – ATP luminescence, mouse fibroblasts, counter-screen, dose response (AID 2010); type: functional, cell-based;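 note: cells exposed to compound for about 90 hours before reading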
[7] = Trypanosoma cruzi growth suppression in host cells – NIH3T3 host cells, beta-gal luminescence, confirmation (AID 2044); type: functional, cell-based;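 note: intracellular parasites grown in NIH/3T3 mouse fibroblasts as host cells; luminescent beta-galactosidase reporter signal from transgenic T. cruzi replicating inside host cells; inhibitors lower the luminescence signal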
[8] = Vero E6 cell cytotoxicity, dose response, cytotoxicity control for non-replicating M. tuberculosis project, secondary assay (AID 492998); type: functional, VeroE6; settings: Vero C1008
Cytochrome P450 3A4 [9] = target: T2, Cytochrome P450 3A4; settings: Potency
Escherichia coli = assay: microbe, parasite or virus in culture
[10] = target: T5, Microphthalmia-associated transcription factor (Homo sapiens, UniProt O75030); assay: reducers of TRPM1 reporter luminescence, concentration series – cell-based, SK-MEL-5, cherry-picked, set 3, MITF inhibitor project, dose response (AID 493073); type: functional;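 note: SK-MEL-5 melanoma cells with luciferase driven by the MITF target TRPM1 promoter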
T5 sequence (O75030 whole entry): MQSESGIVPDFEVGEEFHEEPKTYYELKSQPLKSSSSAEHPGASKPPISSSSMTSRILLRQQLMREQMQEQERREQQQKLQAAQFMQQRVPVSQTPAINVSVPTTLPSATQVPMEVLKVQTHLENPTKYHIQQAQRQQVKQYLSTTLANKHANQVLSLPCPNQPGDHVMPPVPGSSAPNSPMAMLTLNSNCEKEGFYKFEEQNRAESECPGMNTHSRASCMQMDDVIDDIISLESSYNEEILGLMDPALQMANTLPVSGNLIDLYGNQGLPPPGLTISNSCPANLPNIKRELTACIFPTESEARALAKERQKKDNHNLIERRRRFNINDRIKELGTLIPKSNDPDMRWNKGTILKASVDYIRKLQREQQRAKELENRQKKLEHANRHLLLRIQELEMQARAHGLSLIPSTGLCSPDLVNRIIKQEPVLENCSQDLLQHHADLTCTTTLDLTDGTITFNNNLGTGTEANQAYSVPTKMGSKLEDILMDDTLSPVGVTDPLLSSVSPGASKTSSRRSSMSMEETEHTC

[11] = HEK-293T viability loss after treatment – luminescence, T-cell screen hits, cytotoxicity control for TCR NF-kB inhibitor project, dose response (AID 489026); type: functional, cell-based;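 note: cells exposed to compound about 14 hours before the viability readout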
Vero = assay: cells; type: functional, cell-based; settings: Chlorocebus sabaeus
[12] = target: Glucose-6-phosphate 1-dehydrogenase (Homo sapiens, UniProt P11413); assay: inhibition of Homo sapiens G6PD, dose series – biochemical, fluorescence, selectivity assay for P. falciparum G6PD inhibitor project, dose response (AID 504792); type: functional
Chain of Glucose-6-phosphate 1-dehydrogenase (P11413 whole entry): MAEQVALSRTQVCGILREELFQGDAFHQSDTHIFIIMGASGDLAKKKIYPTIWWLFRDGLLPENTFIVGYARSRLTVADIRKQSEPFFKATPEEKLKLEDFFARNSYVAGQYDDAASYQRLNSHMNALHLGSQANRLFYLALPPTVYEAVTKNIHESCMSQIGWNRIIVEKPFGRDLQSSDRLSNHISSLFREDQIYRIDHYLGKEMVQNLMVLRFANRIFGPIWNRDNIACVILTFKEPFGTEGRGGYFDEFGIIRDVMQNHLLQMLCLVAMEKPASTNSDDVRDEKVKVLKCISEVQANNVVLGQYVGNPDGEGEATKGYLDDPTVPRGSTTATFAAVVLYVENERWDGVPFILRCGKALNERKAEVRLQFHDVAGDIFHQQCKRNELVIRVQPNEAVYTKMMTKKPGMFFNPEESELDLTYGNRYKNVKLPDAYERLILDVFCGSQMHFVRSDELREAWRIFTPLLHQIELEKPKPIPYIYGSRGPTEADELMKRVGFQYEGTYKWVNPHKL

[13] = viability of uninfected HEp-2 cells – cell-based, HTS, cytotoxicity control for RSV inhibitor project, dose response (AID 2410); type: functional; settings: human respiratory syncytial virus
Large T antigen = Large T antigen (Simian virus 40, UniProt P03070); type: functional, Betapolyomavirus macacae;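 note: Confirmatory-stage PubChem screen for compounds that inhibit SV40 T antigen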
Chain of Large T antigen (P03070 whole entry): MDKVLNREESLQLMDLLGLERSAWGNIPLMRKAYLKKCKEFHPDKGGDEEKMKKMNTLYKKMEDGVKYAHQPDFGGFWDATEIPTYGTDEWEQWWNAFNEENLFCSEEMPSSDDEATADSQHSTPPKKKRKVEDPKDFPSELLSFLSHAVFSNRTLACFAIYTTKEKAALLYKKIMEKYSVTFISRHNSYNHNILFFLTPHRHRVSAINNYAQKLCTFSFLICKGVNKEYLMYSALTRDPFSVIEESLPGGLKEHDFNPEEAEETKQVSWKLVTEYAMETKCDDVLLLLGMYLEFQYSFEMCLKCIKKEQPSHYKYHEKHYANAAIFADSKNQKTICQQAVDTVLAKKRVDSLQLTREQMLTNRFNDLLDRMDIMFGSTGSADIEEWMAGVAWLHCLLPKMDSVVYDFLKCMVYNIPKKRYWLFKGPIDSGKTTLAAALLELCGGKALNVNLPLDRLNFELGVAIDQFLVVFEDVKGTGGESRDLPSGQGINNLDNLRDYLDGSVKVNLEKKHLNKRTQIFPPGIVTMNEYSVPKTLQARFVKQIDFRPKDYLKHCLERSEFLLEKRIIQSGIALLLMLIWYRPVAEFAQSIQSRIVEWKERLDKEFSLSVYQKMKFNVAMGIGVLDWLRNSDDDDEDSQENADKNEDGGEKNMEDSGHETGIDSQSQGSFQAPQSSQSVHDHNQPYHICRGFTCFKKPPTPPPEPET

## c1ccc2c(N3CCNCC3)cccc2c1
[1]
  AC50: 35.5 µM (inconclusive)

## O=C(COc1ccccc1/C=C1\SC(=O)NC1=O)Nc1ccc(F)cc1
Aminopeptidase N
  IC50: 27.5 µM (active)

## COc1ccc(C(=O)Nc2ccc(F)cc2F)cc1OC
Cytochrome P450 2C9
  AC50: inconclusive
Cytochrome P450 3A4 [2]
  AC50: 25.1 µM (inconclusive)
Cytochrome P450 2C19
  AC50: 39.8 µM (inconclusive)

## Cn1cccc1C(=O)C(=O)Nc1cccc(Cl)c1Cl
Cytochrome P450 2C9
  AC50: inconclusive

## O=C(O)CSc1nc(-c2ccc(Cl)cc2)nc2c1oc1ccccc12
Leucine aminopeptidase
  IC50: 34.6 µM (active)
Genome polyprotein
  IC50: 40.6 µM (active)
Aminopeptidase N
  IC50: 82.7 µM (active)
[3]
  EC50: 1.93 µM (active)
[4]
  EC50: 6.56 µM (active)

## O=c1c(-c2ccc(Cl)cc2)nc2cnc(N3CCOCC3)nc2n1-c1ccccc1
Cytochrome P450 2C9
  AC50: inconclusive
Cytochrome P450 1A2
  AC50: 2 µM (inconclusive)

## CCN1CCN(c2ccc(S(=O)(=O)N3CCCCC3)cc2NC(=O)c2ccc([N+](=O)[O-])o2)CC1
cells
  IC50: 12.8 µM (active)
[5]
  CC50: 19.1 µM (active)
INS1
  AC50: 3.27 µM (active)
[6]
  EC50: 23.8 µM (active)
[7]
  EC50: 0.741 µM (active)
[8]
  CC50: 16.7 µM (active)

## COC(=O)C1=C(C)N(Cc2ccccc2)C2=C3C(=O)N(c4ccccc4)C(=O)C3[C@@](O)(C(=O)OC)C(=O)N2C1c1ccccc1 (stereo not given in full)
Cytochrome P450 3A4 [9]
  AC50: 3.98 µM (inconclusive) and 3.16 µM (inconclusive)

## Cc1nc2ccccc2c(=O)n1NC(=O)c1ccco1
Aminopeptidase N
  IC50: 70.7 µM (active)

## CCCCCCc1ccc(-c2ccc(C#N)cc2)cc1
[1]
  AC50: 6.31 µM (inconclusive)

## O=S(=O)(NC1CCCCC1)c1ccc(Cl)s1
Escherichia coli
  AC50: 115 µM (active)

## N=C1N=C(N)c2cc3ccccc3cc21
[1]
  AC50: 28.2 µM (inconclusive)

## C=CCn1c(NC(=O)c2ccccc2)nc2ccccc21
cells
  IC50: 0.68 µM (active)
[8]
  CC50: 17.7 µM (active)

## CC(Oc1ccc2c(-c3ccccc3)cc(=O)oc2c1)C(=O)NCCCN1CCOCC1 (stereo not given)
Escherichia coli
  AC50: 62.1 µM (active)

## COC(=O)N1[C@H](C)C=C[C@]1(Cc1ccccc1)C(=O)NCc1ccc(N(C)C)cc1
Cytochrome P450 3A4 [9]
  AC50: 1 µM (inconclusive)

## O=C(Nc1ccc(Cl)cc1C(=O)O)c1ccc2c(c1)C(=O)N(Cc1ccco1)C2=O
Genome polyprotein
  IC50: 46.3 µM (active)
Aminopeptidase N
  IC50: 137 µM (active)

## N#C/C(=C\c1ccc(OCc2ccc(C(=O)O)cc2)cc1)C(=O)N1CCOCC1
[10]
  AC50: 1.19 µM (active)
[11]
  IC50: > 80 µM (inactive)

## Cc1ccc(NC(=O)C2CCN(S(=O)(=O)c3c(C)n[nH]c3C)CC2)nc1
Cytochrome P450 2C9
  AC50: inconclusive
Cytochrome P450 2C19
  AC50: 39.8 µM (inconclusive)

## O=c1c2cccnc2[nH]c(=S)n1CCCN1CCN(c2ccccc2F)CC1
Vero
  IC50: 24.6 µM (active)

## CCOC(=O)c1c(N/C=C(\C#N)c2nc(-c3ccc(OC(C)=O)cc3)cs2)sc2c1CCC2
Escherichia coli
  AC50: 12.3 µM (active)

## C=CCNc1ccccc1S(=O)(=O)NCc1ccccc1
Escherichia coli
  AC50: > 150 µM (inactive)

## CCc1ccc(OCC(=O)N/N=C/c2cc([N+](=O)[O-])ccc2N2CCOCC2)cc1
[12]
  IC50: > 80 µM (inactive)
[13]
  CC50: > 50 µM (active)

## O=c1onc2n1-c1cc(Br)ccc1OC2
[1]
  AC50: 5.62 µM (inconclusive)
Cytochrome P450 3A4 [2]
  AC50: 20 µM (inconclusive)

## COc1ccc(C(=O)c2ccc(O)cc2)c(O)c1O [2,3,4'-TRIHYDROXY-4-METHOXYBENZOPHENONE]
Cytochrome P450 3A4 [9]
  AC50: 25.1 µM (inconclusive)

## O=C(O)/C=C/c1ccc(O)c(O)c1 [CAFFEIC ACID]
[1]
  AC50: 2.51 µM (inconclusive)
Large T antigen
  IC50: 7.3 µM (active)
Cytochrome P450 3A4 [9]
  AC50: 25.1 µM (inconclusive)
